Measurements: BindingDB's records for doi:10.1016/s0960-894x(01)00209-8 (Institut Für Biochemie Der Technischen …, 2001)

Molecular target: Beta-glucosidase (Agrobacterium sp.) (UniProt P12614)
Test: Inhibitory activity against Agrobacterium sp. Beta-glucosidase employing fluorescence spectrometric method

Beta-glucosidase (Agrobacterium sp.), sequence (P12614 whole entry, looked up): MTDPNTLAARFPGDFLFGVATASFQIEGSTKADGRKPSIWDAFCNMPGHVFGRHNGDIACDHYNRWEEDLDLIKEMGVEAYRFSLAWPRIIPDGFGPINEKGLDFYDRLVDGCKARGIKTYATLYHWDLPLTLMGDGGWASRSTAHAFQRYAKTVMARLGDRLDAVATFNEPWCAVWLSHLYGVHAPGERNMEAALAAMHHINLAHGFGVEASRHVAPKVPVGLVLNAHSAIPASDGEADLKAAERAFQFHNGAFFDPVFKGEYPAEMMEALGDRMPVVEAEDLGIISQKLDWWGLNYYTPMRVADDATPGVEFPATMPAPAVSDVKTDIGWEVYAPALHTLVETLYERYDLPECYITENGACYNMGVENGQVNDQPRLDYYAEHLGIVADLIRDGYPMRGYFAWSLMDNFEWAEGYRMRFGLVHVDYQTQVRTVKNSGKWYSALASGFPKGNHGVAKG

Row | Ki [nM] | Compound
1 | 2.4 | CN(C)c1cccc2c(S(=O)(=O)NC[C@H]3N[C@H](CO)[C@H](O)[C@@H]3O)cccc12 [5-Dimethylamino-naphthalene-1-sulfonic acid ((3S,4S,5R)-3,4-dihydroxy-5-hydroxymethyl-pyrrolidin-2-ylmethyl)-amide]
2 | 2.1 | CN(C)c1cccc2c(S(=O)(=O)NCCCCCC(=O)NC[C@H]3N[C@H](CO)[C@H](O)[C@@H]3O)cccc12 [6-(5-Dimethylamino-naphthalene-1-sulfonylamino)-hexanoic acid ((3S,4S,5R)-3,4-dihydroxy-5-hydroxymethyl-pyrrolidin-2-ylmethyl)-amide]
